Assay results published in article PMC12257540, “From Inhibitors to PET: SAR-Based Development of [^18F]SK60 for mIDH1 Imaging” (Journal of Medicinal Chemistry, 2025).

Columns and labels:
[1] = logD7.4 by shake-flask method (n-octanol/PBS); assay type: physicochemical; settings: n-octanol/PBS pH 7.4, n = 4
Description: The logD 7.4 value of [ ^ 18 F]-SK60 was experimentally determined by the conventional shake-flask method using n-octanol and PBS as the partition system.
The two phases were presaturated with each other. A solution of the radiotracer (10 μL, 1.1 MBq) was added to a 15 mL plastic centrifuge tube containing n-octanol (3 mL) and PBS (3 mL). The tube was vortexed for 3 min and centrifuged at 3500 rpm for 5 min (Anke TDL80–2B, China). […] The logD 7.4 was determined as the ratio of cpm/mL of the n-octanol layer to that of the buffer layer. Samples from the n-octanol layer were redistributed until consistent distribution coefficient values were obtained. The measurement was carried out in triplicate and repeated three times.

[2] = Ex vivo biodistribution in naïve mice; set-up: species or system CD-1 mice; settings: i.v.
Description: [ ^ 18 F]-SK60 (151 ± 37.0 kBq) diluted in 200 μL of sterile isotonic saline was injected into the tail vein of restrained, awake mice. The animals were anesthetized with isoflurane at 5 (n = 2), 15 (n = 1–2), 30 (n = 3), and 60 (n = 3) min after injection; blood was collected from the retro-orbital plexus with a heparinized glass Pasteur pipet, and the anesthetized animal was sacrificed by cervical dislocation. Blood plasma was obtained by centrifugation of the whole blood (8000 rpm, 4 °C, 2 min). […] From the measured data, the uptake of the activity in the different tissues and organs at the different time points p.i. was calculated as a percentage of injected dose per gram of tissue (% ID/g) and standardized uptake values (SUV).

## Cc1cccc(NC(=O)c2nn(Cc3ccc([18F])cc3)c3c2CN(C(=O)c2ccc[nH]2)CC3(C)C)c1 [[18F]SK60]
[1]
  logD: 2.3 ± 0.5
[2]; kidneys and bladder, 60 min p.i.
  activity in kidneys and bladder: < 1 SUVmean
[2]; liver, 5 min p.i.
  accumulation in liver: ~7 SUVmean
[2]; small intestine, 60 min p.i.
  accumulation in small intestine: ~13 SUVmean
